Values joined by “and” are separate entries in the source; they are usually repeats but may differ in a detail not shown here. Equal entries are not always repeated.
How the values were obtained:
BMDM = assay: CSF-1-induced BMDM proliferation; type: cell-based; details: Mus musculus, data not shown, read-out: IC50 for inhibition of CSF-1-induced BMDM proliferation
[1] = system: bone marrow derived macrophages (BMDM); assay: Clearance of CSF-1 by bone marrow derived macrophages in vitro (CSF-1 ELISA of conditioned media); type: cell-based, mouse; details: for Reduction of rate of CSF-1 consumption: slopes through 4.9 hours
Experimental: COMPOUND 1 was provided as a 10 mM stock in dimethyl sulfoxide (DMSO).Recombinant mouse CSF-1 (416 mL 050) and mouse CSF-1 ELISA (MNC00) were both purchased from R&D Systems Inc., (Minneapolis, Minn.). Mouse bone marrow-derived macrophage (BMDM) were prepared and were plated into 12 well plates in the presence of culture media (αMEM containing 10% FCS and glutamine PenStrep) and 25 ng/mL CSF-1 for three days until approximately 60% confluency was achieved. The cultures were then washed twice with media without CSF-1, and cultured for 2 hrs in the absence of CSF-1 to allow the macrophages to consume CSF-1 that may have been residual to the wells. The cultures were next adjusted to contain CSF-1 and COMPOUND 1 as indicated in Table 1 (Experimental Design) and incubation was continued at 37° C. and 5% CO2. […] At timed-intervals (0, 1.1, 2.3, 4.9, 10.3, 19.9, 29, and 44 hours) 50 μl of conditioned media were removed from each well and saved under refrigeration. After harvest of the last time point, all samples were subjected to CSF-1 ELISA. CSF-1 concentrations (pg/mL) vs time were plotted for each well using linear linear and log linear formats. Consumption was log linear over the first 4.9-hours. Excel was used to calculate a best fit linear equation describing CSF-1 consumption for each well through 4.9 hours and slopes were used to determine the relative rates of consumption.

[2] = system: ED-1 positive macrophages in the uterus; assay: Macrophage content of the uterus (ED-1 immunohistochemistry) in rats, Example 2; type: in vivo, rat; details: highest dose tested (COMPOUND 2 15 mg/kg, COMPOUND 1 40 mg/kg po bid), Day 5; highly variable
Experimental: (§1) Groups of female Sprague Dawley rats (n=5) were orally administered 5 or 15 mg/kg of COMPOUND 2 or 40 mg/kg COMPOUND 1 twice per day for 5 consecutive days to characterize compound tolerability. Additional groups of rats, treated with vehicle or 40 mg/kg COMPOUND 1, were terminated one hour after the a.m. dose on Days 1 and 3 for interim analysis of various parameters. Post-mortem analysis of all treated animals included standard necropsy with liver histology evaluation as well as standard hematology and serology. None of the animals were found dead or were euthanized (moribund) prior to scheduled termination. None of the treatments affected body weight or the organ:body weight ratio of selected organs (i.e., liver, thymus, spleen & uterus). […] Both compounds, at the highest dose tested, decreased the number of macrophages in the uterus (up to ˜60% for COMPOUND 2) on Day 5 however, this parameter was highly variable.
(§2) On Days 1 & 3, one hour after a.m. dose, five rats from Groups 1 and 4 were euthanized using CO2 asphyxiation and exsanguinated via cardiac puncture. Blood samples (˜500 μL) were transferred to separate ethylenediaminetetraacetic acid (EDTA) microtainers and a complete blood count (CBC) was conducted using the Advia 120 Hematology System (Bayer Diagnostics, Tarrytown, N.Y.). Additional blood samples were transferred to separate microtainers (with or without anticoagulant) and processed for biomarker (i.e., MCSF-1) and serologic (i.e., AST/ALT) analysis. The liver and thymus were weighed and discarded. The spleens were weighed and zap-frozen and the uteri (without ovaries attached) were weighed and fixed in 10% buffered formalin. The macrophage content of the uterus was determined immunohistochemically using a macrophage-specific (ED-1) antibody.
On Day 5, rats were euthanized using carbon dioxide and exsanguinated via cardiac puncture. […]
Differences between treated and control groups were analyzed statistically by ANOVA with a Dunnett's Multiple Comparison post-test. […]

CSF-1 [3] = assay: Plasma CSF-1 after single ascending oral doses in healthy male subjects (Human CSF-1 ELISA); type: in vivo; details: individual subjects (placebo subjects not identified); for Plasma CSF-1 Fold Change from Baseline: 1200 mg single oral dose cohort
Experimental: The safety and tolerability of single ascending, oral doses of COMPOUND 1 in healthy male subjects was assessed. Blood samples were collected on Day 1 predose and at 2, 4, 8, 12, 24 and 48 hours postdose and assessed for biomarker. Analysis of the biomarker was performed for all subjects receiving at least one dose of COMPOUND 1 or placebo as set forth in Table 5.
4 mL venous blood samples were collected on Day 1, within 60 minutes (predose), 2, 4, 8, 12, 24, and 48 hours postdose and 3 mL on Day 1 predose, 2 and 8 hours postdose for assessment of the effect of COMPOUND 1 on plasma CSF-1.
Plasma CSF-1 levels were measured using R&D Systems Human CSF-1 ELISA. Samples were diluted 1:5 for assay. Assay range for standards is 31-2000 pg/mL. Maximum measurable plasma concentration is ˜10000 pg/ml. Current maximum measured concentration ˜4000 pg/ml.

[4] = Tolerability in rats, Example 2; type: in vivo; details: 5 or 15 mg/kg COMPOUND 2 or 40 mg/kg COMPOUND 1, po bid, 5 consecutive days
Experimental: as §1, with “variable. […]” for “variable.”
On Days 1 & 3, one hour after a.m. dose, five rats from Groups 1 and 4 were euthanized using CO2 asphyxiation and exsanguinated via cardiac puncture. […] The macrophage content of the uterus was determined immunohistochemically using a macrophage-specific (ED-1) antibody. […]

CSF-1 [5] = assay: Plasma CSF-1 biomarker in rats, Example 2 (po bid 5 days); type: in vivo, rat; details: 40 mg/kg po bid, control ~75 pg/ml
Experimental: as §1
On Day 0, the rats were ear tagged, randomized into the treatment groups (Groups 1 & 4: n=15, Groups 2 & 3: n=5), weighed and treated (po, bid) with either vehicle (20% HPbCD) or the test articles as delineated in Table 2 (Allocation of Treatment Groups).
as §2
On Day 5, rats were euthanized using carbon dioxide and exsanguinated via cardiac puncture. Blood samples (˜500 μL) were collected and processed as described above for CBC, biomarker analysis and serology. The liver, spleen, thymus and uterus (without ovaries attached) were isolated, weighed and fixed in buffered formalin. The right knee with femur attached was isolated, trimmed and fixed in formalin. The left femur was isolated for determination of bone marrow cell counts. Liver histopathology was also conducted.
Differences between treated and control groups were analyzed statistically by ANOVA with a Dunnett's Multiple Comparison post-test. (p value; *:<0.05, **:<0.01).

For CN(C)CC(=O)N1CCC(c2ccc(NC(=O)c3nc(C#N)c[nH]3)c(C3=CCCCC3)c2)CC1.Cl [COMPOUND 1], the IC50 (BMDM) was 2.6 nM, the “Reduction of rate of CSF-1 consumption” value ([1]; 0.001 μM, 1 ng/mL CSF-1) was 16% and the “Reduction of rate of CSF-1 consumption” value ([1]; 0.01 μM, 1 ng/mL CSF-1) was 56%. The “Reduction of rate of CSF-1 consumption” value ([1]; 0.1 μM, 1 ng/mL CSF-1) was 64%, the “Portion of CSF-1 clearance not inhibited” value ([1]; 1 uM) was ~36% and the “Reduction of rate of CSF-1 consumption” value ([1]; 1 μM, 1 ng/mL CSF-1) was 64%. The IC50 ([1]; Mus musculus, BMDM, 1 ng/mL CSF-1, read-out: Half-maximal inhibition of CSF-1 consumption) was 1 to 10 nM, the “Portion of CSF-1 clearance that can be inhibited” value ([1]; based on consumption rates, plateau) was ~64% and the “Effect on macrophage content of the uterus” value [2] was “decreased the macrophage content of the uterus”. For the same compound, the “Plasma CSF-1 Fold Change from Time 0” value (CSF-1 [3]; 150 mg single oral dose cohort, 2 hours postdose) was 1.8 fold (2×) and 2.5 fold and 2.0 fold and 0.8 fold (2×) and 0.9 fold, the “Plasma CSF-1 Fold Change from Time 0” value (CSF-1 [3]; 150 mg single oral dose cohort, 4 hours postdose) was 2.2 fold and 1.8 fold and 1.9 fold (2×) and 0.8 fold (2×) and 0.9 fold and the “Plasma CSF-1 Fold Change from Time 0” value (CSF-1 [3]; 150 mg single oral dose cohort, 8 hours postdose) was 1.4 fold and 2.5 fold and 1.6 fold and 1.0 fold and 0.8 fold and 1.7 fold and 0.7 fold. For the same compound, the “Plasma CSF-1 Fold Change from Time 0” value (CSF-1 [3]; 150 mg single oral dose cohort, 12 hours postdose) was 1.5 fold and 1.6 fold and 2.4 fold and 0.9 fold and 0.8 fold and 1.7 fold and 0.7 fold, the “Plasma CSF-1 Fold Change from Time 0” value (CSF-1 [3]; 150 mg single oral dose cohort, 24 hours postdose) was 1.4 fold and 1.3 fold and 1.2 fold and 2.0 fold and 0.9 fold and 1.8 fold and 0.7 fold and the “Plasma CSF-1 Fold Change from Time 0” value (CSF-1 [3]; 150 mg single oral dose cohort, 48 hours postdose) was 1.2 fold and 1.1 fold and 1.0 fold and 0.8 fold and 1.8 fold and 1.4 fold and 0.6 fold. The “Plasma CSF-1 Fold Change from Time 0” value (CSF-1 [3]; 300 mg single oral dose cohort, 2 hours postdose) was 4.6 fold and 0.8 fold and 3.3 fold and 2.7 fold and 0.9 fold and 5.2 fold and 3.4 fold and 1.8 fold, the “Plasma CSF-1 Fold Change from Time 0” value (CSF-1 [3]; 300 mg single oral dose cohort, 4 hours postdose) was 4.4 fold (2×) and 1.4 fold and 3.0 fold and 0.7 fold and 6.8 fold and 4.5 fold and 2.6 fold and the “Plasma CSF-1 Fold Change from Time 0” value (CSF-1 [3]; 300 mg single oral dose cohort, 8 hours postdose) was 3.8 fold and 0.9 fold and 3.4 fold and 3.0 fold and 1.5 fold and 6.4 fold and 4.1 fold and 1.9 fold. The “Plasma CSF-1 Fold Change from Time 0” value (CSF-1 [3]; 300 mg single oral dose cohort, 12 hours postdose) was 2.6 fold and 0.8 fold and 2.2 fold and 3.8 fold and 0.9 fold and 4.5 fold and 3.0 fold and 1.4 fold, the “Plasma CSF-1 Fold Change from Time 0” value (CSF-1 [3]; 300 mg single oral dose cohort, 24 hours postdose) was 1.9 fold and 0.9 fold and 1.5 fold (3×) and 1.7 fold and 2.1 fold and 1.1 fold and the “Plasma CSF-1 Fold Change from Time 0” value (CSF-1 [3]; 300 mg single oral dose cohort, 48 hours postdose) was 2.3 fold and 1.0 fold and 1.4 fold (2×) and 0.9 fold and 2.2 fold and 1.2 fold and 0.8 fold. For the same compound, the “Plasma CSF-1 Fold Change from Time 0” value (CSF-1 [3]; 600 mg single oral dose cohort, 2 hours postdose) was 7.5 fold and 0.7 fold and 2.9 fold and 5.0 fold and 0.9 fold and 6.0 fold and 4.8 fold and 2.3 fold, the “Plasma CSF-1 Fold Change from Time 0” value (CSF-1 [3]; 600 mg single oral dose cohort, 4 hours postdose) was 8.7 fold and 1.2 fold and the “Plasma CSF-1 Fold Change from Baseline” value (CSF-1 [3]; 2 hours postdose) was 5.4 fold and 4.9 fold and 0.8 fold and 4.4 fold (2×) and 6.8 fold and 0.5 fold and 3.5 fold. The “Plasma CSF-1 Fold Change from Baseline” value (CSF-1 [3]; 4 hours postdose) was 8.9 fold and 8.4 fold and 1.0 fold and 7.6 fold and 9.5 fold and 5.9 fold and 0.4 fold and 5.3 fold, the “Plasma CSF-1 Fold Change from Baseline” value (CSF-1 [3]; 8 hours postdose) was 9.9 fold and 9.8 fold and 1.0 fold and 11.3 fold and 13.4 fold and 6.9 fold and 0.4 fold and 7.8 fold and the “Plasma CSF-1 Fold Change from Baseline” value (CSF-1 [3]; 12 hours postdose) was 9.2 fold and 5.2 fold and 2.1 fold and 10.5 fold and 8.8 fold and 5.8 fold and 0.4 fold and 6.0 fold. For the same compound, the “Plasma CSF-1 Fold Change from Baseline” value (CSF-1 [3]; 24 hours postdose) was 4.7 fold and 1.4 fold and 1.0 fold and 6.1 fold and 2.9 fold and 3.2 fold and 0.4 fold and 1.8 fold, the “Plasma CSF-1 Fold Change from Baseline” value (CSF-1 [3]; 48 hours postdose) was 2.7 fold (2×) and 1.0 fold and 0.9 fold and 3.3 fold and 2.4 fold and 0.6 fold and 1.6 fold and the “Effect on appearance, behavior, body weight or organ:body weight ratio (liver, spleen, thymus)” value [4] was “did not have an observable effect”. For the same compound, the “Mean plasma CSF-1 level” value (CSF-1 [5]; Day 1) was 112 pg/mL, the “Mean plasma CSF-1 level” value (CSF-1 [5]; Day 3) was 314 pg/mL and the “Mean plasma CSF-1 level” value (CSF-1 [5]; Day 5) was 526 pg/mL.

Reference: patent US20090148883A1, “BIOMARKER FOR ASSESSING RESPONSE TO FMS TREATMENT” (priority 2007, published 2009)
